Source: patent publication US8440810B2, “Riboswitches, methods for their use, and compositions for use with riboswitches” (Yale University, priority 2002, dated 2013)
pKd: −log10 of the molar value. Entries after “also recorded” stand apart in the source; their conditions may differ. Where two headings read alike, the source gives them in different places.

Key:
[1] = test system: 80 ydhL RNA; assay: In-line probing of 80 ydhL RNA; type: binding, B. subtilis
[2] = test system: btuB leader-lacZ fusion; settings: from Nou and Kadner; Lundrigan and Kadner; cited from earlier work
[3] = test system: 202-nucleotide mRNA leader (btuB); assay: Equilibrium dialysis with btuB mRNA leader; settings: 5,000 pmoles unlabeled compound added to chamber b
[4] = test system: btuB leader-lacZ fusion; assay: btuB-lacZ expression assay; type: cell-based, E. coli; settings: wild-type btuB leader
[5] = test system: 202-nucleotide leader sequence of the btuB mRNA; type: binding, Escherichia coli; settings: AdoCbl analogs of FIG. 4
Description: Precursor mRNA leader molecules were prepared by in vitro transcription from templates generated by PCR (see In vivo Expression Constructs and Assays section below) and 5′ ^32p-labeled using methods described previously (Soukup and Breaker, Allosteric nucleic acid catalysts. Curr. Opin. Struct. Biol. 10, […] (2000)). Approximately 20 nM of labeled RNA precursor was incubated as described in the brief description of FIG. 1. Accompanying digestions were carried out using reaction conditions similar to those described previously (Soukup and Breaker, Relationship between internucleotide linkage geometry and the stability of […]. RNA 5, 1308-1325 (1999)). […]
Metabolite-dependent conformational changes in the 202-nucleotide leader sequence of the btuB mRNA. […] The image was generated using a phosphorimager (Molecular Dynamics), and cleavage yields were quantitated by using ImageQuant software. […]
The btuB mRNA leader forms a saturable binding site for AdoCbl. […] 5′-^32P-labeled mRNA leader molecules were incubated, separated, and analyzed as described in the in the legend to FIG. 1A, and include identical control and marker lanes as indicated. […] Fraction cleaved values were normalized relative to the highest and lowest cleavage values measured for each location, including the values obtained upon incubation in the absence of AdoCbl. […]

[6] = test system: 165 thiM RNA; type: binding, E. coli; settings: for structure modulation: 40 μM each compound; for pKd: thiM RNA as reported in Example 3 (FIG. 13), read-out: apparent KD
From the text: Specifically, TPP-dependent modulation of the spontaneous cleavage of RNA constructs was visualized by polyacrylamide gel electrophoresis (PAGE). […] Some RNAs were subjected to no reaction, partial digestion with alkali, or partial digestion with RNase T1 (G-specific cleavage) (see FIG. 6a). Composite plots of the fraction of RNA cleaved at specific sites versus the logarithm of the concentration of ligand (e.g. FIG. 7a) were generated to provide an estimate of the apparent KD. Fraction cleaved values were normalized relative to the highest and lowest cleavage values measured for each site.
NR, ^−OH and T1 represent RNAs subjected to no reaction, partial digestion with alkali, or partial digestion with RNase Tl (G-specific cleavage), respectively. Product bands representing cleavage after selected G residues are numbered and identified by filled arrowheads. The asterisk identifies modulation of RNA structure involving the Shine-Dalgarno (SD) sequence. Gel separations were analyzed using a phosphorimager (Molecular Dynamics) and quantitated using ImageQuant software.

[7] = test system: 91 thiM RNA; assay: Equilibrium dialysis with thiM RNA using 3H-thiamine; type: binding, E. coli; settings: 100 μM competitor (Example 2)
[8] = test system: 93 xpt RNA; assay: In-line probing of 93 xpt RNA; type: binding, B. subtilis; settings: for modulation of spontaneous cleavage pattern: 1 μM (adenine as much as 1 mM), 93 xpt and 201 xpt
[9] = test system: lysC 5′-UTR fused to lacZ reporter gene; type: cell-based, B. subtilis; settings: wild-type construct, minimal medium plus 1 mM compound
[10] = test system: lysC 5′-UTR template; assay: In vitro transcription termination assay, lysC 5′-UTR; settings: 10 mM compound
[11] = target: 179 lysC RNA; assay: In-line probing of 179 lysC RNA; settings: read-out: apparent KD; lysine analogs, data not shown, RNA construct not stated
[12] = test system: metI leader construct; type: biochemical, B. subtilis; settings: 50 μM; in all instances (yitJ, yoaD, metK, metI leaders)
[13] = test system: 124 yitJ RNA; assay: In-line probing of 124 yitJ RNA; type: binding, B. subtilis
[14] = test system: 179 lysC RNA; type: binding, B. subtilis; settings: 50 μM unlabeled compound, additional 10 hr
[15] = test system: thiM-lacZ fusion
[16] = test system: thiC-lacZ fusion
[17] = test system: 93 xpt RNA; assay: Equilibrium dialysis with 93 xpt RNA; type: binding, B. subtilis; settings: 500 nM analog
[18] = test system: wild-type ydhL riboswitch fused to β-galactosidase reporter gene; assay: ydhL-lacZ β-galactosidase reporter expression; type: cell-based, B. subtilis
[19] = test system: 93 xpt RNA (C to U mutation at position 74); type: binding, B. subtilis
[20] = test system: xpt-pbuX 5′-UTR fused to β-galactosidase reporter gene; assay: xpt-lacZ β-galactosidase reporter expression; type: cell-based, B. subtilis; settings: wild-type xpt construct, six-hour incubation
[21] = test system: xpt riboswitch variant with the C to U mutation at position 74, reporter construct; type: cell-based, B. subtilis
[22] = test system: ribD RNA; assay: In-line probing of ribD RNA (RFN element); type: binding, B. subtilis
Description: To assess whether the RFN element of ribD was responsive to FMN, a fragment of the corresponding 5′-UTR was 5′-^32P labeled and incubated in the absence and presence of FMN, and the resulting fragments were analyzed by polyacrylamide gel electrophoresis (PAGE). […] To obtain values for apparent dissociation constant (apparent KD) for FMN, in-line probing assays were repeated with trace amounts of ribD RNA and increasing concentrations of FMN; the ligand concentration that correlates with half-maximal modulation of RNA structure should reflect the apparent KD.

[23] = translational fusion, 100 μM thiamine, minimal medium

## Nc1ncc2[nH]cnc2n1 [2-aminopurine]
[1]
  binding / structural modulation: measurable binding

## cyanocobalamin
[2]
  regulatory effector for btuB expression: incapable of serving as a regulatory effector
[3]
  restoration of equal tritium distribution by excess unlabeled compound: does not restore the ratio of tritium to unity

## 13-epi-AdoCbl [compound 11]
[4]
  regulatory effector function on reporter gene inside cells: inactive
[5]
  structural modulation (spontaneous cleavage at site 2, U68): inactive

## Cc1ncc(C[n+]2csc(CCOP(=O)(O)O)c2C)c(N)n1 [TP, thiamine monophosphate]
[6]
  structure modulation: induce modulation
  pKd: 5.52

## Cc1ncc(C[n+]2csc(CCO)c2C)c(=O)[nH]1 [oxythiamine]
[7]
  reversal of 3H-thiamine shift by excess unlabeled compound: does not significantly restore the tritium distribution to unity; also recorded: could not be reversed
[6]
  structure modulation: fail to induce structure modulation

## O=c1[nH]cnc2nc[nH]c12 [hypoxanthine]
[8]
  modulation of spontaneous cleavage pattern: induce modulation of spontaneous cleavage

## NCCSC[C@H](N)C(=O)O [thiosine, S-(2-aminoethyl)-L-cysteine]
[9]
  repression of β-galactosidase reporter expression: represses β-galactosidase expression
[10]
  induction of transcription termination: cause an increase in transcription termination
[11]
  pKd: ~4.52

## c1ncc2[nH]cnc2n1 [P, purine]
[1]
  binding / structural modulation: measurable binding

## O=c1[nH]c(=O)c2[nH]cnc2[nH]1 [xanthine]
[8]
  modulation of spontaneous cleavage pattern: induce modulation of spontaneous cleavage

## Nc1ncnc2c1ncn2[C@@H]1O[C@H](CSC[C@H](N)C(=O)O)[C@@H](O)[C@H]1O [SAC]
[12]
  modulation of transcription termination: little or no modulation of transcription termination
[13]
  discrimination relative to SAM: ~10,000 fold

## Nc1ncnc2c1ncn2[C@@H]1O[C@H](CSCC[C@H](N)C(=O)O)[C@@H](O)[C@H]1O [SAH, S-adenosylhomocysteine]
[12]
  modulation of transcription termination: little or no modulation of transcription termination
[13]
  discrimination relative to SAM: ~100 fold

## NCCCC[C@@H](N)C(=O)O [D-lysine]
[10]
  induction of transcription termination: Neither D-lysine nor L-ornithine induce termination
[14]
  restoration of equal tritium distribution by unlabeled competitor: do not restore equal distribution of tritium

## CNc1ncnc2nc[nH]c12 [MA, 6-methylaminopurine]
[1]
  binding / structural modulation: measurable binding

## COc1nc(N)nc2nc[nH]c12 [O^6-methylguanine]
[8]
  loss in apparent KD relative to guanine: > 100 fold

## Nc1nc(N)c2[nH]cnc2n1 [2,6-DAP, 2,6-diaminopurine]
[1]
  binding / structural modulation: measurable binding; also recorded: tightest-binding ligand

## Nc1ncnc2nc(Cl)[nH]c12 [8-chloroadenine]
[1]
  binding / structural modulation: prevents ligand binding

## Cc1ncc(C[n+]2csc(CCO)c2C)c(N)n1 [thiamine]
[15]; transcriptional fusion
  suppression of β-galactosidase activity: not subject to suppression
[15]; [23]
  thiamine-dependent suppression of β-galactosidase activity: 18 fold
[7]
  reversal of 3H-thiamine shift by excess unlabeled compound: could be eliminated
[16]; transcriptional fusion
  modulation of β-galactosidase activity: 16 fold
[16]; [23]
  thiamine-dependent suppression of β-galactosidase activity: 110 fold
[6]
  structure modulation: induce modulation
  pKd: 4.40

## Nc1nc2c(ncn2[C@@H]2O[C@H](CO)[C@@H](O)[C@H]2O)c(=O)[nH]1 [guanosine]
[17]
  redistribution of 3H-guanine by excess unlabeled competitor: fails to restore equal distribution

## Nc1ncnc2nc[nH]c12 [adenine]
[8]
  modulation of spontaneous cleavage pattern: does not alter the pattern of RNA cleavage products
[8]; guanine riboswitch from B. subtilis xpt
  apparent KD poorer than for guanine: at least 100,000 fold
[8]; read-out: KD
  pKd: < 3.52
[18]
  increase in gene expression: greater than 10 fold
[19]
  structural modulation and binding in equilibrium dialysis: exhibits structural modulation and binding activity
[19]; read-out: apparent KD
  pKd: ~7.00
[1]
  binding / structural modulation: specific for adenine
[1]; half-maximal change at sites 1 through 4, read-out: apparent KD
  pKd: ~6.52
[1]; listed as A
  binding / structural modulation: measurable binding
[20]
  repression of reporter expression: ~4 fold
[21]
  regulation of reporter expression: no change in the putative protein-dependent control

## Nc1nc(Br)c2[nH]cnc2n1 [2-amino-6-bromopurine]
[8]
  loss in apparent KD relative to guanine: ~1,000 fold

## Cc1cc2nc3c(=O)[nH]c(=O)nc-3n(C[C@H](O)[C@H](O)[C@H](O)CO)c2cc1C [riboflavin]
[22]
  discrimination relative to FMN: approximately three orders of magnitude
[22]; worded for FMN riboswitches
  discrimination relative to FMN: ~1,000 fold

## NCCC[C@H](N)C(=O)O [L-ornithine]
[10]
  induction of transcription termination: Neither D-lysine nor L-ornithine induce termination
[14]
  restoration of equal tritium distribution by unlabeled competitor: do not restore equal distribution of tritium
